Broadly, the IC50 is the concentration that gives 50% inhibition. A lower IC50 goes with inhibition by little substance.

Drawing on ChEMBL document CHEMBL1146515, “Four new triterpenoids from Maytenus ilicifolia” (J Nat Prod, 2004), this text covers Activity and IC50 for 6 molecules.

In brackets after ≈: the same amount, converted by molar mass. Activity calls are given as the source filed them. The calls are words filed in the database; no cut-off is given here. Where only a bound is given, the exact number is not on record here.

What all share (type): functional, cell-based
Assay [1] concerns HL-60. As to the kind of experiment: Induction of human HL60 cell differentiation assessed as morphological change at 0.05 to 25 ug/ml by phase-contrast microscopy.
In assay [2] the test system is KB/VJ300. Kind of assay: Reversal of vincristine resistance in human KB/VJ300 cells.
For assay [3], the system named is KB. As to the kind of experiment: Cytotoxicity against vincristine-sensitive human KB cells after 72 hrs by alamar blue assay. Background: Resazurin is reduced to fluorescent resorufin, in cell work by metabolically active cells.
Assay [4] is filed under the species Homo sapiens. As to the kind of experiment: Cytotoxicity against human KU-19-20 cells after 72 hrs by alamar blue assay.
For assay [5], the system named is KB/VJ300. As to the kind of experiment: Cytotoxicity against vincristine-resistant human KB/VJ300 cells after 72 hrs by alamar blue assay.

With `C[C@H]1[C@H](C)CC[C@]2(CO)CC[C@]3(C)C(=CC[C@@H]4[C@@]5(C)CC[C@H](OC(=O)/C=C/c6ccc(O)c(O)c6)C(C)(C)[C@@H]5CC[C@]43C)[C@H]12`, the result in assay [1] and in assay [2] was inactive. The molecule further yielded an IC50 in assay [3] of over 10 µg/mL.
In the case of `C=C(C)[C@@H]1CC[C@]2(CO)CC[C@]3(C)[C@H](CC[C@@H]4[C@@]5(C)CC[C@H](OC(=O)/C=C/c6ccc(O)c(O)c6)C(C)(C)[C@@H]5CC[C@]43C)[C@@H]12`, the outcome in assay [1] and in assay [2] was inactive. Also, in assay [3], the IC50 is over 10 µg/mL.
In the case of `CC1(C)CC[C@]2(CO)CC[C@]3(C)C(=CC[C@@H]4[C@@]5(C)CC[C@H](OC(=O)/C=C/c6ccc(O)c(O)c6)C(C)(C)[C@@H]5CC[C@]43C)[C@H]2C1`, the result in assay [1] and in assay [2] was inactive. Also, in assay [3], the 50% inhibitory concentration (IC50) is over 10 µg/mL.
Turning to `C=C(C)[C@@H]1CC[C@]2(CO)CC[C@]3(C)[C@H](CC[C@@H]4[C@@]5(C)CC[C@H](O)C(C)(C)[C@@H]5CC[C@]43C)[C@@H]12` [BETULIN], the result in assay [1] and in assay [2] was inactive. In addition, the half-maximal inhibitory concentration (IC50) in assay [3] is over 10 µg/mL.
For the molecule `CC1(C)CC[C@]2(CO)CC[C@]3(C)C(=CC[C@@H]4[C@@]5(C)CC[C@H](O)C(C)(C)[C@@H]5CC[C@]43C)[C@@H]2C1` [ERYTHRODIOL], the result in assay [4] and in assay [5] was Active. Besides, the result in assay [1] and in assay [2] was inactive. In addition, in assay [3], the IC50 was 7 µg/mL (≈ 15.8 µM).
As for `C=C(C)[C@@H]1CC[C@]2(CO)CC[C@]3(C)[C@H](CC[C@@H]4[C@@]5(C)C[C@@H](O)C(=O)C(C)(C)[C@@H]5CC[C@]43C)[C@H]12` [MAYTEFOLIN A], the result in assay [1] and in assay [2] was inactive. The concentration for half-maximal inhibition (IC50) in assay [3] was over 10 µg/mL.
